# Positions count from the first letter of the chain named. Read-outs that look alike come from different tables or passages of the source.
# Tests used:
# Human recombinant PARP1 = Human recombinant PARP1 (Homo sapiens, UniProt P09874); assay: RBC HotSpot PARP1 assay (radioisotope-based filter binding); type: biochemical
# Procedure: (§1) The following methods are for evaluating the in vitro biology properties of the test articles. • a. RBC HotSpot Poly(ADP-ribose) Polymerases 1 (PARP1) and Poly(ADP-ribose) Polymerases 2 (PARP2) Assays: The assay was conducted at Reaction Biology Corporation (RBC; Malvern, PA). The assay principle is radioisotope-based filter binding assay where incorporation of radioisotope-labeled NAD^+ into the substrate captured on filter is detected after washout free NAD^+. Data were analyzed using Excel and GraphPad Prism software for IC50 curve fits. Each assay was conducted with PJ34 as a positive control. PARP1 assay: Human recombinant PARP1 at a final concentration of 2.5 nM was combined with histone H4 (20 μM) and test articles at various concentrations in reaction buffer (50 mM Tris-HCL, pH 8.0, 50 mM NaCl, 10 mM MgCl2, 1 mM DTT, 1% DMSO, and 20 μg/mL activated DNA). The solution was inoculated for 20 min at room temperature and the reaction initiated by adding [adenylate-^32P]-Nicotinamide Adenine Dinucleotide, ^32P-NAD^+ at a final concentration of 10 μM. After incubation for 2 hrs at room temperature, the reaction mixture was filtered and washed with 0.75% phosphoric acid for radioactivity detection. • ii. PARP2 assay: Human recombinant PARP2 at a final concentration of 2.5 nM was combined with histone H3 (20 μM) and test articles at various concentrations in reaction buffer (50 mM Tris-HCL, pH 8.0, 50 mM NaCl, 10 mM MgCl2, 1 mM DTT, 1% DMSO, and 20 μg/mL activated DNA). The solution was inoculated for 20 min at room temperature and the reaction was initiated by adding [adenylate-^32P]-Nicotinamide Adenine Dinucleotide, ^32P-NAD^+ at a final concentration of 10 μM. After incubation for 2 hrs at room temperature, the reaction mixture was filtered and washed with 0.75% phosphoric acid for radioactivity detection. • b. AR binding assay: AR in LNCaP cytosol was used for determining the binding affinity of test articles and the reference compound—progesterone (Sigma, Cat: E2785, St. Louis, MO). IC50 s were determined using 8 concentrations/compound. Cytosol is plated at 200 μg/well (100 μL) into a 96-well conical polypropylene plate (Agilent, Cat: 5042-1385, Santa Clara, CA) and mixed with 3 μL of test compound. After adding 100 μL of ^3H-methyltrienolone (PerkinElmer, Cat: NET590250UC, San Jose, CA), the plate was sealed and shaken at 300 rpm at 4° C. for 24 hours. Post incubation, 100 μL of radioligand adsorption buffer containing 10 mM Tris-HCl, pH 7.4; 1.5 mM EDTA; 1 mM DTT; 0.25% charcoal; 0.0025% dextran was added to individual wells. Plate was shaken for 15 min at 4° C. followed by centrifugation at 3000 rpm for 30 min at 4° C. 150 μL of supernatant is transferred into scint-tube (PerkinElmer, Cat: 6000192) and mixed with 2 mL of Ultima Gold Cocktail (PerkinElmer, Cat: 6013329). Radioactivity is counted using a TriCarb 2910 TR scintillation counter (PerkinElmer). Inhibition of the radioactivity by test articles was calculated using the equation below: % Inhibition=(1−(Assay well−Average_LC)/(Average_HC−Average_LC))×100%. • IC50 values (Table 6) were calculated and graphed using the model “log(inhibitor) vs. response—Variable slope” included in GraphPad Prism 5 (San Diego, CA). The Ki values were further calculated using the equation below where [L] is the radioligand concentration (1 nM) used in this study. Kd value was 0.332 nM. Ki=IC50/(1+[L]/Kd) • c. AR transactivation: Human AR cloned into a CMV vector backbone is used for the transactivation study. HEK-293 cells are plated at 80,000 cells per well of a 24 well plate in DME+5% csFBS. Twenty four hours later, the cells are transfected using Lipofectamine (Invitrogen, Carlsbad, CA) with 0.25 μg GRE-LUC, 0.01 μg CMV-LUC (renilla luciferase) and 25 ng of the AR in OPTIMEM medium. The cells are treated 24 hrs after transfection with various ligands (10^−12 to 10^−5 M final concentrations) and luciferase assay performed 48 hours after transfection. […]
# Human recombinant PARP2 = Human recombinant PARP2 (Homo sapiens, UniProt Q9UGN5); assay: RBC HotSpot PARP2 assay (radioisotope-based filter binding); type: biochemical
# Procedure: as §1
# 22Rv1 cells = assay: Cell viability assay (CellTiterGlo, 6 days) 22Rv1; type: cell-based; conditions: Homo sapiens, 22Rv1, 144 h, read-out: 22RV1
# Procedure: (§2) Cell viability assay: LNCap, 22Rv1, and T47D cells were seeded at a density of 1500-2000 cells/well in 96 well plates, and a ‘T0’ (timepoint 0) was included along with the assay plate. The plates were then incubated at 37° C., 5% CO2 in a cell culture incubator overnight. On the next day, the ‘T0’ plate was assayed using CellTiterGlo (Promega, Inc) according to the manufacturer's instructions. The appropriate compounds were diluted in DMSO and added to the assay plate (final DMSO concentration of 0.2%) on the next day. The assay plates were incubated for 6 days at 37° C., 5% CO2. After the incubation period, the plates were assayed using CellTiterGlo (Promega, Inc) according to the manufacturer's instructions and luminescence was read on the EnVision plate reader. Inhibition the tested compounds was determined by the following formula: Inhibition rate (%)=(1−(RLU compound−RLU day0)/(RLU control−RLU day0))*100%. GraphPadPrism was used to analyze the data and determine absolute IC50 values.
# LNCap cells = assay: Cell viability assay (CellTiterGlo, 6 days) LNCap; type: cell-based; conditions: Homo sapiens, 144 h
# Procedure: as §2
# [1] = target: T1, full-length androgen receptor (Homo sapiens, UniProt P10275); assay: AR antagonism assay (HEK293, testosterone 1 nM, Steady-glo); type: cell-based
# T1 construct: HEK293 cells stably expressing the full-length androgen receptor; expressed in transfected cells
# T1 sequence (P10275 1-920): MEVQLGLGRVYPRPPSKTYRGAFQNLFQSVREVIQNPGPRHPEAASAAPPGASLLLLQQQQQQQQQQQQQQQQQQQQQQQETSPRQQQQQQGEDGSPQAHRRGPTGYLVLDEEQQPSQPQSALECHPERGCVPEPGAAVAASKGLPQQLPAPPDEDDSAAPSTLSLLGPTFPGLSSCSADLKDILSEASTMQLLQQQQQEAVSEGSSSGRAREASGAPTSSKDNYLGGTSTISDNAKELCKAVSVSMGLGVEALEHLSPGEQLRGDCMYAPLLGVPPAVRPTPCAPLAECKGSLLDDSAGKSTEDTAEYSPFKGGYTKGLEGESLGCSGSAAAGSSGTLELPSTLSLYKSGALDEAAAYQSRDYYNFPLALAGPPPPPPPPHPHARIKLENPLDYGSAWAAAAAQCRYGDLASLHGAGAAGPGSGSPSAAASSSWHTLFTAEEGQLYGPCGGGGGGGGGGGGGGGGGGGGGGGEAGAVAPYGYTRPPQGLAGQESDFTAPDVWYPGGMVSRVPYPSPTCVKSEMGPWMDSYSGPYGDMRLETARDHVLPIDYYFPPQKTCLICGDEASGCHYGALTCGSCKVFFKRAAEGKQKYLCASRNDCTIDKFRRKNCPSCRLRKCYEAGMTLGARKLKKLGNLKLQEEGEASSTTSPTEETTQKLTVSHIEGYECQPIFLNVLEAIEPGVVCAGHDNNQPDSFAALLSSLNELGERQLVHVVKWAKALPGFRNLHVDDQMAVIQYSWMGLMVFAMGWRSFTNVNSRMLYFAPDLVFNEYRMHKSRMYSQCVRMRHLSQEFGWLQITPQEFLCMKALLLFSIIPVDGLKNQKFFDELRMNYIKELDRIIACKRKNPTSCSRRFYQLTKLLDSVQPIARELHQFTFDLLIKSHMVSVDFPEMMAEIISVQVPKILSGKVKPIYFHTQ
# Procedure: AR antagonism assay: To evaluate AR antagonist activity, test compound was added to the assay plate (top dose 10 μM, 3 fold serial dilution, 10 point dose response). HEK293 cells stably expressing the full-length androgen receptor were seeded at a density of 20000 cells/well in the assay plate. The assay plate was then incubated at room temperature for 10 minutes and at 37° C., 5% CO2 for 20 minutes. Testosterone was added to the assay plate at 1 nM final concentration and the assay plate was incubated at 37° C., 5% CO2 for 20 h. After the incubation period, Steady-glo was added to the assay plate and mixed at room temperature for 20 minutes on an orbital shaker, before reading out on the EnVision plate reader.
# [2] = target: T2, AR, cytosol from LnCaP cells (Homo sapiens, UniProt P10275, T878A); assay: AR binding assay, 3H-R1881 (Biological Example 2)
# T2 construct: AR in LNCaP cytosol was used; endogenous in cells; host or cells: LNCaP cells (cytosol)
# T2 sequence (P10275 1-920 T878A): T1 sequence (P10275 1-920) with T878A
# Procedure: AR binding assay: To assess AR binding, test compound (top dose […], 4 fold serial dilution, 8 point dose response) and control (progesterone) were transferred to the assay plate. Cytosol from LnCaP cells was added to the plate, followed by addition of radiolabeled ^3H-R1881 at a final concentration of 1 nM. The plate was sealed, and the reaction was incubated at 300 rpm at 4° C. for 24 hrs. Radioligand absorption buffer (10 mM Tris-HCl, pH 7.4; 1.5 mM EDTA; 1 mM DTT; 0.25% charcoal; 0.0025% dextran) was then added to the plate, mixed, and incubated at 4° C. for 15 minutes. The plate was then centrifuged at 3000 rpm for 30 minutes at 4° C. The supernatant was transferred to the scint-tube and Tri-carb was used for scintillation counting. The data was analyzed using GraphPadPrism v5.0 and binding IC50 was determined as the concentration where 50% inhibition of radioligand binding was observed.
# Sequence of Human recombinant PARP1 (P09874 whole entry): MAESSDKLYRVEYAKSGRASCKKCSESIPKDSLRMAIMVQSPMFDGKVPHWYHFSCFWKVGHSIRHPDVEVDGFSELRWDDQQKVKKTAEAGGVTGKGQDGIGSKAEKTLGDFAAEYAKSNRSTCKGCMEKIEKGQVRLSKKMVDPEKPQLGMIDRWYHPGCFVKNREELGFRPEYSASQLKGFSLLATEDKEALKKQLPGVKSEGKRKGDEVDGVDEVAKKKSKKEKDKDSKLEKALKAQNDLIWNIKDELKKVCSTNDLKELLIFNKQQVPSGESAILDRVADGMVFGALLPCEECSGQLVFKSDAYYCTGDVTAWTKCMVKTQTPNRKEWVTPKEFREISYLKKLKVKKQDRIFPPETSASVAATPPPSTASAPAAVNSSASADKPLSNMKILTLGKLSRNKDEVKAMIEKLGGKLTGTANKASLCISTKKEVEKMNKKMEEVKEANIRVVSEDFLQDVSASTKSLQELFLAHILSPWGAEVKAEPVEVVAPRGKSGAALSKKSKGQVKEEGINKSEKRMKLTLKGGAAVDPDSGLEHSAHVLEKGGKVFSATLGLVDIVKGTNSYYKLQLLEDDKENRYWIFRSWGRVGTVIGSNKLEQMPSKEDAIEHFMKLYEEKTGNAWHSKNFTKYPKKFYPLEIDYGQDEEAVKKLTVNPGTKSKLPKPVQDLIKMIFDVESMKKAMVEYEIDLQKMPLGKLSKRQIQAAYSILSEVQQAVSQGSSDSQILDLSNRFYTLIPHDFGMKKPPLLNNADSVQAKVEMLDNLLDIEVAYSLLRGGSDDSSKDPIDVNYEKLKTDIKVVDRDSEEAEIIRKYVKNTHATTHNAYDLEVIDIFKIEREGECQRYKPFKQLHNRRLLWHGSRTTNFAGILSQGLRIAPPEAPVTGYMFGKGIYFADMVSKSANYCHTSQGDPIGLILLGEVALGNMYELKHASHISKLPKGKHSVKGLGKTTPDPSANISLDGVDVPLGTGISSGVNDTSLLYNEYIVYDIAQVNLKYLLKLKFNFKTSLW
# Sequence of Human recombinant PARP2 (Q9UGN5 whole entry): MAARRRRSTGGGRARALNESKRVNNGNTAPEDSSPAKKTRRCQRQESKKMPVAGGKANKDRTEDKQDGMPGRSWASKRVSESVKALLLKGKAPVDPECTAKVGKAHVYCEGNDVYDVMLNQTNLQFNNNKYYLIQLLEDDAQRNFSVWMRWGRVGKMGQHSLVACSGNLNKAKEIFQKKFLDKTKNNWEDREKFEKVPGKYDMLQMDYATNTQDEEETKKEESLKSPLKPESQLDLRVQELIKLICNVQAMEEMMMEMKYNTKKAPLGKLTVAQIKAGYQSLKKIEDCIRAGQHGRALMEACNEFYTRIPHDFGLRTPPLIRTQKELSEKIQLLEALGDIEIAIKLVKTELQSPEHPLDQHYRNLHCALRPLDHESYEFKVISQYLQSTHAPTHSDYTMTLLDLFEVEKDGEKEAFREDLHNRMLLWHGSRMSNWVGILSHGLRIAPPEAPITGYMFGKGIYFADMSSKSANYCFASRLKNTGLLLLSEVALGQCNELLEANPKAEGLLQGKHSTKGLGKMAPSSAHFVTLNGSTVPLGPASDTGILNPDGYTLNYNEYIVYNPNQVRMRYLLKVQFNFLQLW
smiles,measurement,setting,value
"C[C@]12C[C@H](CCCCCC(=O)N3CCN(C(=O)c4cc(Cc5n[nH]c(=O)c6ccccc56)ccc4F)CC3)C3=C4CCC(=O)C=C4CC[C@H]3[C@@H]1CCC2=O [Compound 1370, (8S,11S,13S,14S)-11-(6-(4-(2-fluoro-5-((4-oxo-3,4-dihydrophthalazin-1-yl)methyl)benzoyl)piperazin-1-yl)-6-oxohexyl)-13-methyl-7,8,11,12,13,14,15,16-octahydro-1H-cyclopenta[a]phenanthrene-3,17(2H,6H)-dione]",IC50,Human recombinant PARP1,< 1 nM
same,IC50,Human recombinant PARP2,< 1 nM
same,IC50,22Rv1 cells,100 to 1000 nM
same,IC50,LNCap cells; Table 7,100 to 1000 nM
"C[C@]12C=CC(=O)C[C@@H]1CC[C@@H]1[C@@H]2CC[C@]2(C)[C@@H](OCCCCCC(=O)N3CCN(C(=O)c4cc(Cc5n[nH]c(=O)c6ccccc56)ccc4F)CC3)CC[C@@H]12 [Compound 1410, 4-(3-(4-(6-((5S,8R,9S,10R,13S,14S,17S)-10,13-dimethyl-3-oxo-4,5,6,7,8,9, 10,11,12,13,14,15,16,17-tetradecahydro-3H-cyclopenta[a]phenanthren-17-yloxy)hexanoyl)piperazine-1-carbonyl)-4-fluorobenzyl)phthalazin-1(2H)-one]",IC50,[1],100 to 1000 nM
same,IC50,"22Rv1 cells; Table 7, cell viability, 6 days",100 to 1000 nM
same,IC50,[2],10 to 100 nM
same,IC50,LNCap cells; Table 7,100 to 1000 nM
"C[C@@H]1C[C@@]2(C)[C@@H](CC[C@@H]3[C@@H]2CC[C@]2(C)[C@@H](OCCCCCC(=O)N4CCN(C(=O)c5cc(Cc6n[nH]c(=O)c7ccccc67)ccc5F)CC4)CC[C@@H]32)CC1=O [Compound 1402, 4-(4-fluoro-3-(4-(6-((2R,5S,8R,9S,10S,13S,14S,17S)-2,10,13-trimethyl-3-oxohexadecahydro-1H-cyclopenta[a]phenanthren-17-yloxy)hexanoyl)piperazine-1-carbonyl)benzyl)phthalazin-1(2H)-one]",IC50,"Human recombinant PARP1; Table 9, read-out: PARP1",10 to 100 nM
same,IC50,"Human recombinant PARP2; Table 9, read-out: PARP2",1 to 10 nM
C[C@]12CC[C@H]3[C@@H](CCC4=CC(=O)CC[C@@]43C)[C@@H]1CC[C@@H]2C(=O)COCCCCCC(=O)NCCOCCOCC(=O)N1CCN(C(=O)c2cc(Cc3n[nH]c(=O)c4ccccc34)ccc2F)CC1 [Compound 1392],IC50,"Human recombinant PARP1; Table 9, read-out: PARP1",1 to 10 nM
same,IC50,"Human recombinant PARP2; Table 9, read-out: PARP2",< 1 nM
same,IC50,LNCap cells; Table 8,1000 to 10000 nM

# — patent US11952349B2, “Anti-cancer nuclear hormone receptor-targeting compounds” (Nuvation Bio Inc., priority 2019, dated 2024)
